From EP4653017A1, “ANTIBODY-DRUG CONJUGATE AND USE THEREOF” (Tyligand Bioscience (Shanghai) Limited, priority 2023, dated 2024) come the findings set out here.

One test concerns THP-1 cells. Description: Activation of IFN-β secretion by THP-1 cells (IFN-beta ELISA). It is filed as cell-based, human. In general terms: ELISA stands for enzyme-linked immunosorbent assay.
Another test has as its system B16F10. Description: Inhibition of tumor cell line proliferation (Table 3), B16F10. The note with it: B16-F10; B16F10, Mouse melanoma cells. It is filed as cell-based.
The test system of another test is Daudi. In words: Inhibition of tumor cell line proliferation (Table 3), Daudi. It is filed as cell-based. To be noted: Human Burkitt's lymphoma cells.
The next test has as its system H22. In words: Inhibition of tumor cell line proliferation (Table 3), H22. It is filed as cell-based. To be noted: H22, Mouse hepatoma cells.
A further test concerns MC38. Description: Inhibition of tumor cell line proliferation (Table 3), MC38. Type of test: cell-based. The note with it: MC-38; MC38, Mouse colon cancer cells.
For another test, the system named is SK-MEL5. In words: Inhibition of tumor cell line proliferation (Table 3), SK-MEL5. Type of test: cell-based. To be noted: SK-MEL-5; SK-MEL5, Human melanoma cells.
For test [1], the system named is human gastric cancer NCI-N87 cells. Description: Inhibition of NCI-N87 cell proliferation (CTG assay). Type of test: cell-based. Here is the method:
NCI-N87 cells (Cell Bank of Chinese Academy of Sciences, Cat. No. #TCHu130) were cultured at 37°C, 5% CO2, 95% humidity in RPMI 1640 + 10% FBS (ExCell Bio, Cat. No. #FND500), the cells in logarithmic growth phase were harvested and counted, and cell viability was measured using Countstar automated cell counter based on classical trypan blue staining principle to ensure that the cell viability was above 90%. The cell concentration was adjusted, 135 µL of cell suspension was added into 96 well clear flat bottom black wall plate (Corning, Cat. No. #3904), 2000/well, and the cells was incubated in 96 well plate at 37°C and 5% CO2.
The cells in the 96 well plates that had been dosed were incubated at 37°C, 5% CO2 for 5 days before performing CTG assay. the plate was equilibrated to room temperature for 30 min and CTG Reagent (CellTiter-Glo® Luminescent Cell Viability Assay (Promega, Cat. No. #G7573) was melt, 50 µL of CTG Solution was added to each well, and shaked on an orbital shaker for 2 min to lyse the cells. The plate was left at room temperature for 10 min to stabilize the cold light signal and the cold light value was read (EnVision® Multifunctional Plate Reader, PerkinElmer#2105). [formula]
GraphPad Prism software was used to analyze the data, and Dose-response-inhibition equation was used to fit the data to obtain the dose-response curve from which IC50 value was calculated. […]

The subject of test [2] is human ovarian cancer SK-OV-3. In words: SK-OV-3 subcutaneous xenograft model, Example 7 (ADC-1, ADC-2). Type of test: in vivo, BALB/c Nude mice. The note with it: 0.1 mg/kg; for Tumor growth inhibition (TGI) / Rate of complete tumor regression (TV = 0 mm^3): Day 21; for Rate of complete tumor regression (TV = 0 mm^3): 5 mice. Here is the method: 0.1 mL (1×10^7) of human ovarian cancer SK-OV-3 cells (purchased from ATCC, Cat#HTB-77) (PBS: matrigel volume ratio of 1:1) was subcutaneously inoculated into the right posterior back of each mouse (BALB/c Nude mice, 6-8 weeks old, female, Jiangsu GemPharmatech Co., Ltd.). When the mean tumor volume reached approximately 150 mm^3, the mice were randomly divided into 9 experimental groups, with 5 mice in each group. […] Group 9 was received intratumoral injection of CDN-3 0.1 mg/kg on Days 0, 4, and 7 of the study for a total of 3 drug doses (see Table 4 for animal grouping). The vehicle was a PBS buffer. Tumor volume and body weight were measured twice weekly during the experimental period, and data was recorded. Tumor volume was calculated according to the formula in Example 3.

Where a name gives a salt, the structure may show the parent alone.

As usually defined, the IC50 is the concentration at which inhibition is half-maximal. Read a high IC50 as a need for much substance. On to `Nc1nc2c(ncn2[C@@H]2O[C@@H]3CO[P@@](=O)(S)O[C@H]4[C@H](F)[C@H](n5cnc6c(N)nc(Cl)nc65)O[C@@H]4CO[P@@](=O)(S)O[C@@H]2[C@@H]3O)c(=O)[nH]1` [CDN-3, (2',3')-cyclo-(Rp,Rp)-[2'-O-thiophosphodiester-guanosine]-[3'-O-thiophosphodiester-2-chloro-2'-deoxy-2'-fluoro-beta-adenosine]diammonium salt], for which, in the test with THP-1 cells (EC50 stronger than 2',3'-cGAMP, comparable to ADU-S100), the “STING agonist activity (in words)” value is “significant STING agonist activity”. Also, the EC50 in the test with THP-1 cells (Homo sapiens, THP-1, 24 h, read-out: THP-1 activity) was 1000 to 10000 nM. The IC50 stood at 8700 nM in the test with B16F10; 423 nM with Daudi; 982 nM in the test with H22; 1020 nM in the test with MC38; 505 nM in the test with SK-MEL5; 209 nM in test [1] (Homo sapiens, 120 h, NCI-N87, 5 days incubation, top concentration 600 nM). Further, in test [1], the “inhibitory effects on NCI-N87 cell proliferation (in words)” value is “strong inhibitory effects”. In addition, the “Tumor Volume (mm^3, Day 21)” value in test [2] (i.t., day 0, 4, 7) was 540 ± 47 mm^3; in test [2] (i.v., day0) it was 723 ± 140 mm^3. The “Tumor growth inhibition (TGI)” value in test [2] (i.t., day 0, 4, 7) was found to be 39%; in test [2] (i.v., day0) it was 10%. For the same compound, the “Rate of complete tumor regression (TV = 0 mm^3)” value is 0% (0/5) in test [2] (i.t., day 0, 4, 7) and 0% (0/5) in test [2] (i.v., day0).
